The target in the first assay is T1, rat H3 receptor (Rattus norvegicus, UniProt Q9QYN8).
T1 construct: expressed in transfected cells
T1 sequence (Q9QYN8 whole entry): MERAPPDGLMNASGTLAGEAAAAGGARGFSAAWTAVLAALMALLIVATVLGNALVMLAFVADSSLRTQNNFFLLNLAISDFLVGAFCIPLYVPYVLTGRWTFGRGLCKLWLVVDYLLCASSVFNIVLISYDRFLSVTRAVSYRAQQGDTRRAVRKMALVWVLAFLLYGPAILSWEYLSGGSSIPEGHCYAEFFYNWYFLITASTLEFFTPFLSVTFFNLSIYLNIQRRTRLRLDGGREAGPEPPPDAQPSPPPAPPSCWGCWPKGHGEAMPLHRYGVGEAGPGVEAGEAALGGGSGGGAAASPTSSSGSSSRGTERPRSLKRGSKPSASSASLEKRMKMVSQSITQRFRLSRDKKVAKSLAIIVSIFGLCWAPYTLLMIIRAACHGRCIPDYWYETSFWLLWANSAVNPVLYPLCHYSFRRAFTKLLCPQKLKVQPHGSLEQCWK
Nature of the assay: H3 receptor binding, cloned rat H3 receptor stably expressed in SK-N-MC cells. The settings on record: average of results. How it is done: (§1) Binding of compounds to the cloned human and rat H3 receptors, stably expressed in SK-N-MC cells, was performed as described by Barbier, A. J. et al. (Br. J. Pharmacol. 2004, 143(5), 649-661). Data for compounds tested in these assays are presented in Table 1 (human) and Table 2 (rat), as an average of the results obtained.
T2 sequence (Q9Y5N1 whole entry): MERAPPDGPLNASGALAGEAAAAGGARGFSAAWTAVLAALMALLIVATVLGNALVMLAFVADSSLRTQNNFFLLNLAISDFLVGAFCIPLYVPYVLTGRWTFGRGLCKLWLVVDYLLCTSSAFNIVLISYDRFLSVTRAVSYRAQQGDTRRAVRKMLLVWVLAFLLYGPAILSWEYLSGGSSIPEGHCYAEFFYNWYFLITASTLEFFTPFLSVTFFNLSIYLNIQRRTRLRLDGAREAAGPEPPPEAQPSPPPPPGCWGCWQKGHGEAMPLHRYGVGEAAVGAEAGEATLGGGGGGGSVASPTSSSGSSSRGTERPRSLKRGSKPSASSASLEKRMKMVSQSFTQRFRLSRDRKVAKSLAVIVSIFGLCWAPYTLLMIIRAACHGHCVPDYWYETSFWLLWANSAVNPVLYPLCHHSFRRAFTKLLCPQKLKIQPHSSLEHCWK
As to `CCC(O)c1ccc(C(=O)N2CCCN(C(C)C)CC2)cc1` (centres unmarked) [Example 10, [4-(1-Hydroxy-propyl)-phenyl]-(4-isopropyl-[1,4]diazepan-1-yl)-methanone], the affinity corresponds to a Ki of 0.509 µM.

Turning to `CC(C)N1CCCN(C(=O)c2ccc(C(O)c3ccccc3)cc2)CC1` (centres unmarked) [Example 11, [4-(Hydroxy-phenyl-methyl)-phenyl]-(4-isopropyl-[1,4]diazepan-1-yl)-methanone], the affinity, expressed as Ki, was 0.078 µM.

Take `CCC(O)c1ccc(C(=O)N2CCCN(C3CC3)CC2)cc1` (centres unmarked) [Example 31, (4-Cyclopropyl-[1,4]diazepan-1-yl)-[4-(1-hydroxy-propyl)-phenyl]-methanone]: the affinity corresponds to a Ki of 0.205 µM.

Consider `O=C(c1ccc(C2CCCCC2)cc1)N1CCN(C2CCC2)CC1` [Example 36, (4-Cyclobutyl-piperazin-1-yl)-(4-cyclohexyl-phenyl)-methanone], for which the affinity, expressed as Ki, was 0.079 µM.

Another assay has as its target T2, human H3 receptor (Homo sapiens, UniProt Q9Y5N1).
T2 construct: expressed in transfected cells
Nature of the assay: Cyclic AMP accumulation, SK-N-MC subline with reporter construct and human H3 receptor. The conditions noted are these: cAMP accumulation, SK-N-MC reporter cells expressing human H3; average of results; read-out: Human pA2 (converted). The class given is cell-based. The text has this:
(§2) Sublines of SK-N-MC cells were created that expressed a reporter construct and either the human or rat H3 receptor. The pA2 values were obtained as described by Barbier et al. (2004). Data for compounds tested in these assays are presented in Table 3, as an average of the results obtained (NT=not tested).
`CCC(O)c1ccc(C(=O)N2CCCN(C3CCC3)CC2)cc1` (centres unmarked) [Example 19, (4-Cyclobutyl-[1,4]diazepan-1-yl)-[4-(1-hydroxy-propyl)-phenyl]-methanone]: the Kb is 0.000182 µM.

A further assay concerns the target T1, rat H3 receptor. In words: Cyclic AMP accumulation, SK-N-MC subline with reporter construct and rat H3 receptor. The class given is cell-based. The conditions noted are these: cAMP accumulation, SK-N-MC reporter cells expressing rat H3; average of results; read-out: Rat pA2 (converted).
Description: as §2
A general note: Changes in cAMP serve as a functional read-out for many G protein-coupled receptors.
As for `CC(C)N1CCN(C(=O)c2ccc(CO)cc2)CC1` [Example 6, (4-Hydroxymethyl-phenyl)-(4-isopropyl-piperazin-1-yl)-methanone], the Kb is 0.295 µM.

In the case of `CCC(O)c1ccc(C(=O)N2CCCN(C3CCC3)CC2)cc1` (centres unmarked) [Example 19, (4-Cyclobutyl-[1,4]diazepan-1-yl)-[4-(1-hydroxy-propyl)-phenyl]-methanone], the Kb is 0.00331 µM.

The next assay addresses T2, human H3 receptor. Nature of the assay: H3 receptor binding, cloned human H3 receptor stably expressed in SK-N-MC cells. The settings on record: average of results. How it is done: as §1
Regarding `CC(C)N1CCN(C(=O)c2ccc(C(O)C3CCCCC3)cc2)CC1` (centres unmarked) [Example 1, [4-(Cyclohexyl-hydroxy-methyl)-phenyl]-(4-isopropyl-piperazin-1-yl)-methanone], the affinity corresponds to a Ki of 0.007 µM.

Turning to `CCC(O)c1ccc(C(=O)N2CCN(C(C)C)CC2)cc1` (centres unmarked) [Example 2, [4-(1-Hydroxy-propyl)-phenyl]-(4-isopropyl-piperazin-1-yl)-methanone], the affinity, expressed as Ki, was 0.032 µM.

Turning to `CC(C)N1CCN(C(=O)c2ccc(C(O)c3ccccc3)cc2)CC1` (centres unmarked) [Example 3, [4-(Hydroxy-phenyl-methyl)-phenyl]-(4-isopropyl-piperazin-1-yl)-methanone], the Ki – broadly, the equilibrium dissociation constant of an inhibitor or competing ligand from its target – was determined as 0.014 µM.

Turning to `CC(O)c1ccc(C(=O)N2CCN(C(C)C)CC2)cc1` (centres unmarked) [Example 4, [4-(1-Hydroxy-ethyl)-phenyl]-(4-isopropyl-piperazin-1-yl)-methanone], the inhibition constant (Ki) amounted to 0.058 µM.

As to `CC(C)C(O)c1ccc(C(=O)N2CCN(C(C)C)CC2)cc1` (centres unmarked) [Example 5, [4-(1-Hydroxy-2-methyl-propyl)-phenyl]-(4-isopropyl-piperazin-1-yl)-methanone], the affinity, expressed as Ki, was 0.006 µM.

`CC(C)N1CCN(C(=O)c2ccc(CO)cc2)CC1` [Example 6, (4-Hydroxymethyl-phenyl)-(4-isopropyl-piperazin-1-yl)-methanone]: the inhibition constant Ki came to 0.164 µM.

Take `CC(C)N1CCCN(C(=O)c2ccc(CO)cc2)CC1` [Example 8, (4-Hydroxymethyl-phenyl)-(4-isopropyl-[1,4]diazepan-1-yl)-methanone]: the Ki was 0.031 µM.

`CC(C)N1CCCN(C(=O)c2ccc(C(=O)C3CCCCC3)cc2)CC1` [Example 9, (4-Cyclohexanecarbonyl-phenyl)-(4-isopropyl-[1,4]diazepan-1-yl)-methanone] had an inhibitory constant (Ki) of 0.003 µM.

For `CCC(O)c1ccc(C(=O)N2CCCN(C(C)C)CC2)cc1` (centres unmarked) [Example 10, [4-(1-Hydroxy-propyl)-phenyl]-(4-isopropyl-[1,4]diazepan-1-yl)-methanone], the affinity corresponds to a Ki of 0.009 µM.

In turn, `CC(C)N1CCCN(C(=O)c2ccc(C(O)c3ccccc3)cc2)CC1` (centres unmarked) [Example 11, [4-(Hydroxy-phenyl-methyl)-phenyl]-(4-isopropyl-[1,4]diazepan-1-yl)-methanone] came in with a Ki of 0.002 µM.

On to `CC(O)c1ccc(C(=O)N2CCCN(C(C)C)CC2)cc1` (centres unmarked) [Example 12, [4-(1-Hydroxy-ethyl)-phenyl]-(4-isopropyl-[1,4]diazepan-1-yl)-methanone], for which the inhibition constant Ki came out at 0.017 µM.

`CC(C)C(O)c1ccc(C(=O)N2CCCN(C(C)C)CC2)cc1` (centres unmarked) [Example 13, [4-(1-Hydroxy-2-methyl-propyl)-phenyl]-(4-isopropyl-[1,4]diazepan-1-yl)-methanone] came in with a Ki of 0.006 µM.

In the case of `O=C(c1ccc(C(O)c2ccccc2)cc1)N1CCN(C2CCC2)CC1` (centres unmarked) [Example 14, (4-cyclobutyl-piperazin-1-yl)-[4-(hydroxy-phenyl-methyl)-phenyl]-methanone], the inhibition constant Ki was 0.004 µM.

For `CCC(O)c1ccc(C(=O)N2CCN(C3CCC3)CC2)cc1` (centres unmarked) [Example 15, (4-Cyclobutyl-piperazin-1-yl)-[4-(1-hydroxy-propyl)-phenyl]-methanone], the Ki is 0.012 µM.

In the case of `CC(C)C(O)c1ccc(C(=O)N2CCN(C3CCC3)CC2)cc1` (centres unmarked) [Example 16, (4-Cyclobutyl-piperazin-1-yl)-[4-(1-hydroxy-2-methyl-propyl)-phenyl]-methanone], the inhibition constant (Ki) turned out to be 0.015 µM.

`O=C(c1ccc(C(O)C2CCCCC2)cc1)N1CCN(C2CCC2)CC1` (centres unmarked) [Example 17, (4-Cyclobutyl-piperazin-1-yl)-[4-(cyclohexyl-hydroxy-methyl)-phenyl]-methanone] returned a Ki of 0.004 µM.

Consider `O=C(c1ccc(CO)cc1)N1CCN(C2CCC2)CC1` [Example 18, (4-Cyclobutyl-piperazin-1-yl)-(4-hydroxymethyl-phenyl)-methanone], for which the Ki was determined as 0.043 µM.

The molecule `CCC(O)c1ccc(C(=O)N2CCCN(C3CCC3)CC2)cc1` (centres unmarked) [Example 19, (4-Cyclobutyl-[1,4]diazepan-1-yl)-[4-(1-hydroxy-propyl)-phenyl]-methanone] returned an inhibition constant Ki of 0.001 µM.

In turn, `O=C(c1ccc(C(O)C2CCCCC2)cc1)N1CCCN(C2CCC2)CC1` (centres unmarked) [Example 20, (4-Cyclobutyl-[1,4]diazepan-1-yl)-[4-(cyclohexyl-hydroxy-methyl)-phenyl]-methanone] had a Ki of 0.001 µM.

Take `O=C(c1ccc(C(O)c2ccccc2)cc1)N1CCCN(C2CCC2)CC1` (centres unmarked) [Example 21, (4-Cyclobutyl-[1,4]diazepan-1-yl)-[4-(hydroxy-phenyl-methyl)-phenyl]-methanone]: the inhibitory constant (Ki) came to 0.001 µM.

For the molecule `CC(C)C(O)c1ccc(C(=O)N2CCCN(C3CCC3)CC2)cc1` (centres unmarked) [Example 22, (4-Cyclobutyl-[1,4]diazepan-1-yl)-[4-(1-hydroxy-2-methyl-propyl)-phenyl]-methanone], the Ki was 0.001 µM.

The molecule `O=C(c1ccc(CO)cc1)N1CCCN(C2CCC2)CC1` [Example 23, (4-Cyclobutyl-[1,4]diazepan-1-yl)-(4-hydroxymethyl-phenyl)-methanone] gave an inhibition constant (Ki) of 0.002 µM.

For `O=C(c1ccc(C(O)C2CCCCC2)cc1)N1CCN(C2CC2)CC1` (centres unmarked) [Example 24, [4-(Cyclohexyl-hydroxy-methyl)-phenyl]-(4-cyclopropyl-piperazin-1-yl)-methanone], the Ki was found to be 0.019 µM.

The molecule `O=C(c1ccc(C(O)c2ccccc2)cc1)N1CCN(C2CC2)CC1` (centres unmarked) [Example 25, (4-Cyclopropyl-piperazin-1-yl)-[4-(hydroxy-phenyl-methyl)-phenyl]-methanone] showed a Ki of 0.059 µM.

In turn, `CC(C)C(O)c1ccc(C(=O)N2CCN(C3CC3)CC2)cc1` (centres unmarked) [Example 26, (4-Cyclopropyl-piperazin-1-yl)-[4-(1-hydroxy-2-methyl-propyl)-phenyl]-methanone] showed an inhibitory constant (Ki) of 0.084 µM.

Molecule `O=C(c1ccc(CO)cc1)N1CCCN(C2CC2)CC1` [Example 28, (4-Cyclopropyl-[1,4]diazepan-1-yl)-(4-hydroxymethyl-phenyl)-methanone] showed a Ki of 0.02 µM.

In turn, `CCC(O)c1ccc(C(=O)N2CCCN(C3CC3)CC2)cc1` (centres unmarked) [Example 31, (4-Cyclopropyl-[1,4]diazepan-1-yl)-[4-(1-hydroxy-propyl)-phenyl]-methanone] came in with an inhibition constant (Ki) of 0.004 µM.

The molecule `CCc1ccc(C(=O)N2CCN(C3CCC3)CC2)cc1` [Example 34, (4-Cyclobutyl-piperazin-1-yl)-(4-ethyl-phenyl)-methanone] gave a Ki of 0.028 µM.

Turning to `CC(C)c1ccc(C(=O)N2CCN(C3CCC3)CC2)cc1` [Example 35, (4-Cyclobutyl-piperazin-1-yl)-(4-isopropyl-phenyl)-methanone], the inhibitory constant (Ki) was 0.011 µM.

As for `O=C(c1ccc(C2CCCCC2)cc1)N1CCN(C2CCC2)CC1` [Example 36, (4-Cyclobutyl-piperazin-1-yl)-(4-cyclohexyl-phenyl)-methanone], the affinity corresponds to a Ki of 0.009 µM.

With `O=C(c1ccc(Cc2ccccc2)cc1)N1CCN(C2CCC2)CC1` [Example 37, (4-Benzyl-phenyl)-(4-cyclobutyl-piperazin-1-yl)-methanone], the Ki was 0.007 µM.

The molecule `CCCc1ccc(C(=O)N2CCN(C3CCC3)CC2)cc1` [Example 38, (4-Cyclobutyl-piperazin-1-yl)-(4-propyl-phenyl)-methanone] registered a Ki of 0.031 µM.

On to `CCCCc1ccc(C(=O)N2CCN(C3CCC3)CC2)cc1` [Example 39, (4-Butyl-phenyl)-(4-cyclobutyl-piperazin-1-yl)-methanone], for which the inhibition constant (Ki) stood at 0.024 µM.

`CCCCCc1ccc(C(=O)N2CCN(C3CCC3)CC2)cc1` [Example 40, (4-Cyclobutyl-piperazin-1-yl)-(4-pentyl-phenyl)-methanone] yielded a Ki of 0.017 µM.

`CC(C)(O)c1ccc(C(=O)N2CCN(C3CCC3)CC2)cc1` [Example 41, (4-Cyclobutyl-piperazin-1-yl)-[4-(1-hydroxy-1-methyl-ethyl)-phenyl]-methanone] showed a Ki of 0.032 µM.

`O=C(c1ccc(C2(O)CCCCC2)cc1)N1CCN(C2CCC2)CC1` [Example 42, (4-Cyclobutyl-piperazin-1-yl)-[4-(1-hydroxy-cyclohexyl)-phenyl]-methanone] returned a Ki of 0.007 µM.

For the molecule `CCC(O)c1ccc(C(=O)N2CCN(C3CC3)CC2)cc1` (centres unmarked) [Example 48, (4-Cyclopropyl-piperazin-1-yl)-[4-(1-hydroxy-propyl)-phenyl]-methanone], affinity was put at a Ki of 0.221 µM.

`O=C(c1ccc(CO)cc1)N1CCN(C2CC2)CC1` [Example 49, (4-Cyclopropyl-piperazin-1-yl)-(4-hydroxymethyl-phenyl)-methanone] registered an inhibition constant (Ki) of 0.586 µM.

As to `CCCCN1CCN(C(=O)c2ccc(CO)cc2)CC1` [Example 50, (4-Butyl-piperazin-1-yl)-(4-hydroxymethyl-phenyl)-methanone], affinity was put at a Ki of 0.055 µM.

Regarding `CCC(C)N1CCN(C(=O)c2ccc(CO)cc2)CC1` (centres unmarked) [Example 51, (4-sec-Butyl-piperazin-1-yl)-(4-hydroxymethyl-phenyl)-methanone], the inhibition constant Ki stood at 0.53 µM.

The values are drawn from patent US20080045507A1, “SUBSTITUTED BENZAMIDE MODULATORS OF THE HISTAMINE H3 RECEPTOR” (priority 2006, published 2008).
